Data: the supplement of paper PMC10307832

Experiments:
Assay in all cases: relative viability (nuclei count vs DMSO), 5 days (fraction); higher = more cells survive
[1] = compound: C1CNCCC1C2=CC(=NN2)C3=CC=NC=C3 + O=C(c1cc(Cc2n[nH]c(=O)c3ccccc23)ccc1F)N1CCN(C(=O)C2CC2)CC1 [Olaparib] (partner 8 µM)
How it was run: (§1)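 Cells from lung cancer lines were seeded into 1536-well plates and, one day later, dosed by pin tool. Treatments were either a single drug or a fixed dose of an anchor drug with five library-drug doses (not always all listed) in √10 steps. After 5 days, nuclei were stained in a one-step fixation (final 0.05% Triton X-100, 1% formaldehyde, 1 ug/ml Hoechst) and counted on 4× images, and relative viability is the treated-to-vehicle nuclei ratio, as the median of duplicate plates.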

[2] = compound: C[C@@H](N)c1ccc(C(=O)Nc2ccnc3[nH]ccc23)cc1 + NC(=O)Nc1cc(-c2cccc(F)c2)sc1C(=O)N[C@H]1CCCNC1 [AZD7762] (partner 0.2 µM)
How it was run: as §1

[3] = compound: C[C@@H](N)c1ccc(C(=O)Nc2ccnc3[nH]ccc23)cc1 + CS(=O)(=O)N1CCN(Cc2cc3nc(-c4cccc5[nH]ncc45)nc(N4CCOCC4)c3s2)CC1 [Pictilisib] (partner 1 µM)
How it was run: as §1

[4] = compound: C[C@@H](N)c1ccc(C(=O)Nc2ccnc3[nH]ccc23)cc1 + Cc1nc(Nc2ncc(C(=O)Nc3c(C)cccc3Cl)s2)cc(N2CCN(CCO)CC2)n1 [Dasatinib] (partner 0.075 µM)
How it was run: as §1

| Cell Line | relative viability ([1]; first compound 0.08 µM) | relative viability ([1]; first compound 0.8 µM) | relative viability ([1]; first compound 2.53 µM) | relative viability ([1]; first compound 8 µM) | relative viability ([2]; first compound 0.04 µM) | relative viability ([2]; first compound 0.1265 µM) | relative viability ([2]; first compound 0.4 µM) | relative viability ([2]; first compound 1.265 µM) | relative viability ([2]; first compound 4 µM) | relative viability ([3]; first compound 0.04 µM) | relative viability ([3]; first compound 0.1265 µM) | relative viability ([3]; first compound 0.4 µM) | relative viability ([3]; first compound 1.265 µM) | relative viability ([3]; first compound 4 µM) | relative viability ([4]; first compound 0.04 µM) | relative viability ([4]; first compound 0.1265 µM) | relative viability ([4]; first compound 0.4 µM) | relative viability ([4]; first compound 1.265 µM) | relative viability ([4]; first compound 4 µM) |
| --- | --- | --- | --- | --- | --- | --- | --- | --- | --- | --- | --- | --- | --- | --- | --- | --- | --- | --- | --- |
| 201T | 0.832 | 0.863 | 0.832 | 0.858 | 0.644 | 0.678 | 0.668 | 1.01 | 0.783 | 0.702 | 0.636 | 0.685 | 0.519 | 0.788 | 0.667 | 0.635 | 0.674 | 0.738 | 0.808 |
| A549 | 0.345 | 0.303 | 0.435 | 0.367 |  |  |  |  |  | 0.596 | 0.526 | 0.597 | 0.525 | 0.428 |  |  |  |  |  |
| A-427 | 0.589 | 0.775 | 0.752 | 0.716 | 0.708 | 0.751 | 0.779 | 0.806 | 0.665 | 0.658 | 0.766 | 0.66 |  | 0.793 | 0.483 | 0.666 | 0.707 |  | 0.506 |
| ABC-1 | 0.826 | 0.795 | 1.15 | 0.84 |  | 0.861 | 0.808 |  | 0.554 | 0.804 | 0.832 | 1.07 | 0.484 | 0.769 | 0.577 | 0.552 | 0.648 | 0.507 | 0.445 |
| BEN | 1.01 | 1.09 | 1.2 | 0.967 | 0.607 | 0.879 | 0.841 | 0.913 | 0.663 | 0.537 | 0.454 | 0.611 | 0.617 | 0.44 | 0.245 | 0.252 | 0.396 | 0.319 | 0.265 |
| CAL-12T | 0.676 | 0.665 | 0.753 | 0.719 | 0.625 | 0.682 | 0.606 | 0.784 | 0.803 | 0.544 | 0.76 | 0.66 |  | 0.437 | 0.52 | 0.524 | 0.461 | 0.316 | 0.338 |
| COR-L23 | 0.287 | 0.344 | 0.323 | 0.406 |  |  |  |  |  | 0.621 | 0.867 | 0.799 | 0.591 | 0.562 | 0.44 | 0.511 | 0.466 | 0.424 | 0.266 |
| COR-L 105 | 0.7 | 0.721 | 0.675 | 0.746 |  |  |  |  |  | 0.435 | 0.297 | 0.399 | 0.255 | 0.309 | 0.247 | 0.317 | 0.372 | 0.241 | 0.216 |
| Calu-6 | 0.565 | 0.6 | 0.62 | 0.497 |  |  |  |  |  | 0.952 | 0.988 | 0.854 | 0.928 | 0.75 |  |  |  |  |  |
| ChaGo-K-1 | 0.546 | 0.426 | 0.435 | 0.362 | 0.832 | 0.862 | 0.978 | 0.838 | 0.816 | 0.777 | 0.937 | 0.988 |  | 0.696 | 0.475 | 0.554 | 0.541 | 0.54 | 0.42 |
| EBC-1 | 0.778 | 0.722 | 0.804 | 0.741 |  |  |  |  |  | 0.38 | 0.408 | 0.347 | 0.473 | 0.593 |  |  |  |  |  |
| EKVX | 0.882 |  | 1.05 | 0.755 | 0.708 | 0.714 | 0.896 | 0.745 | 0.707 | 0.582 | 0.489 | 0.532 | 0.467 | 0.443 | 0.624 | 0.533 | 0.561 | 0.248 | 0.455 |
| EMC-BAC-2 | 0.346 | 0.521 | 0.476 | 0.477 | 0.946 | 1.09 | 1.17 | 1.03 | 0.895 | 0.491 | 0.575 | 0.531 | 0.476 | 0.411 | 0.263 | 0.337 | 0.314 | 0.266 | 0.315 |
| EPLC-272H | 0.973 | 0.761 | 0.935 | 0.801 | 0.0944 | 0.216 | 0.18 |  | 0.439 | 0.387 | 0.34 | 0.339 |  | 0.297 | 0.43 | 0.278 | 0.32 | 0.211 | 0.182 |
| H3255 | 0.562 | 0.567 | 0.601 | 0.608 | 0.929 | 1.07 | 1.11 | 1.07 | 0.724 | 0.496 | 0.576 | 0.608 | 0.581 | 0.515 | 0.344 | 0.432 | 0.519 | 0.331 | 0.4 |
| HARA | 0.762 | 1.27 | 1.21 | 1.11 | 0.275 | 0.266 | 0.3 | 0.965 | 0.311 | 0.634 | 0.517 | 0.432 | 0.475 | 0.292 |  | 0.287 | 0.225 |  | 0.237 |
| HCC-15 | 0.694 | 0.789 | 0.766 | 0.588 | 1.19 | 1.23 | 1.4 | 1.18 | 1.28 | 0.821 | 0.705 | 0.796 |  | 0.731 | 0.633 | 0.574 | 0.603 |  | 0.442 |
| HCC-44 | 0.979 | 1.06 | 0.953 | 0.957 | 1.07 | 1.01 | 1.09 | 1.26 | 1.09 | 0.789 | 0.508 | 0.656 | 0.571 | 0.482 |  |  |  |  |  |
| HCC-78 | 0.821 |  | 0.985 | 0.748 | 0.798 | 0.624 | 0.788 | 0.856 | 0.477 | 0.509 | 0.318 | 0.297 | 0.137 | 0.254 | 0.556 | 0.376 | 0.51 | 0.388 | 0.614 |
| HCC-366 | 0.341 | 0.412 | 0.498 | 0.36 | 0.174 | 0.32 | 0.434 | 0.588 | 0.359 | 0.113 | 0.137 | 0.163 | 0.132 | 0.0875 | 0.544 | 0.621 | 0.483 |  | 0.508 |
